Laboratory results published in US10253039B2, “Inhibitors of bacterial DNA gyrase with efficacy against gram-negative bacteria” (priority 2014, dated 2019).
Values after ≈ are worked out from the molar mass of the structure shown.

Experiments:
Assay type in all cases: cell-based
[1] = tested on: Edwardsiella tarda; test: MIC, microdilution in 96-well plates; details: D: Edwardsiella tarda
Outline: (§1)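 Growth inhibition was scored after overnight culture (16-18 hours, 37° C., shaking) by looking for turbidity; the first clear well in a triplicate 2-fold compound series defined the MIC. Strains were inoculated at 1:10000 into LB.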

[2] = tested on: E. coli BW25113; test: MIC, microdilution in 96-well plates; details: Escherichia coli, BW25113, B: E. coli BW25113; read-out: MIC
Outline: as §1

[3] = tested on: Staphylococcus saprophyticus subsp. saprophyticus; test: MIC, 20-strain panel
Outline: as §1

[4] = tested on: Klebsiella pneumoniae subsp. pneumoniae; test: MIC, 20-strain panel; details: E: Klebsiella pneumoniae subsp. pneumoniae
Outline: as §1

[5] = tested on: Staphylococcus aureus subsp. aureus; test: MIC, 20-strain panel; details: H: Staphylococcus aureus subsp. aureus, read-out: MIC
Outline: as §1

[6] = tested on: Staphylococcus epidermidis; test: MIC, 20-strain panel
Outline: as §1

[7] = tested on: Salmonella enterica subsp. enterica typhimurium; test: MIC, 20-strain panel; details: F: Salmonella enterica subsp. enterica Typhimurium
Outline: as §1

[8] = tested on: Shigella flexneri; test: MIC, 20-strain panel; details: G: Shigella flexneri
Outline: as §1

[9] = tested on: E. coli JW5503 (deltolC); test: MIC, 20-strain panel; details: Escherichia coli, C: E. coli JW5503 (deltolC)
Outline: as §1

[10] = tested on: Streptococcus pyogenes; test: MIC, 20-strain panel
Outline: as §1

[11] = tested on: Streptococcus agalactiae; test: MIC, 20-strain panel
Outline: as §1

[12] = tested on: E. coli MG1655; test: MIC, 20-strain panel; details: Escherichia coli, MG1655, A: E. coli MG1655; read-out: MIC
Outline: as §1

Row | Compound | MIC [1] [µg/mL] | MIC [2] [µg/mL] | MIC [3] [µg/mL] | MIC [4] [µg/mL] | MIC [5] [µg/mL] | MIC [6] [µg/mL] | MIC [7] [µg/mL] | MIC [8] [µg/mL] | MIC [9] [µg/mL] | MIC [10] [µg/mL] | MIC [11] [µg/mL] | MIC [12] [µg/mL]
1 | Cc1c(S(=O)(=O)N[C@@H]2CCN(Cc3ccc(OC(C)C)cc3)C2)sc2ccc(Cl)cc12 [Compound 83] | > 8 | > 8 | > 8 | > 8 | ~8 (≈ 16.7 µM) | 8 (≈ 16.7 µM) | > 8 | > 8 | 8 (≈ 16.7 µM) | 8 (≈ 16.7 µM) | > 8 | > 8
2 | CC(C)Oc1ccc(CN2CC[C@@H](NS(=O)(=O)c3cccc4cccnc34)C2)cc1 [Compound 84] | > 8 | > 8 | > 8 | > 8 | > 8 | > 8 | > 8 | > 8 | 1 (≈ 2.35 µM) | > 8 | > 8 | > 8
3 | Cc1c(S(=O)(=O)N[C@@H]2CCN(Cc3ccc(OC4CC4)cc3)C2)sc2ccc(Cl)cc12 [Compound 85] | > 8 | > 8 | > 8 | > 8 | ~8 (≈ 16.8 µM) | 4 (≈ 8.38 µM) | > 8 | > 8 | ~8 (≈ 16.8 µM) | 8 (≈ 16.8 µM) | > 8 | > 8
4 | CSc1ccc(CN2CC[C@@H](NS(=O)(=O)c3cccc(C(F)(F)F)c3)C2)cc1 [Compound 86] | > 8 | > 8 | > 8 | > 8 | > 8 | > 8 | > 8 | > 8 | 4 (≈ 9.29 µM) | > 8 | > 8 | > 8
5 | O=S(=O)(N[C@@H]1CCN(Cc2ccc(OC(F)F)cc2)C1)c1cccc(C(F)(F)F)c1 [Compound 87] | > 8 | > 8 | > 8 | > 8 | > 8 | > 8 | > 8 | > 8 | 2 (≈ 4.44 µM) | > 8 | > 8 | > 8
6 | COc1cc(CN2CC[C@@H](NS(=O)(=O)c3cccc(OC(F)(F)F)c3)C2)ccc1OC(C)C [Compound 88] | > 8 | > 8 | > 8 | > 8 | > 8 | > 8 | > 8 | > 8 | > 8 | > 8 | > 8 | > 8
7 | O=S(=O)(N[C@@H]1CCN(Cc2ccc(OCC(F)F)cc2)C1)c1cccc(OC(F)(F)F)c1 [Compound 89] | > 8 | > 8 | > 8 | > 8 | > 8 | > 8 | 8 (≈ 16.7 µM) | > 8 | 0.5 (≈ 1.04 µM) | > 8 | > 8 | > 8
8 | O=S(=O)(N[C@@H]1CCN(Cc2ccc(OC3CC3)cc2)C1)c1cc(C(F)(F)F)ccc1Cl [Compound 90] | > 8 | ~8 (≈ 16.8 µM) | > 8 | > 8 | > 8 | > 8 | 4 (≈ 8.42 µM) | ~8 (≈ 16.8 µM) | < 0.0625 | > 8 | > 8 | > 8
9 | CC(C)Oc1ccc(CN2CC[C@@H](NS(=O)(=O)c3cc(Cl)cc(C(F)(F)F)c3)C2)cc1 [Compound 92] | > 8 | > 8 | > 8 | > 8 | > 8 | > 8 | > 8 | > 8 | 8 (≈ 16.8 µM) | > 8 | > 8 | > 8
10 | CC(C)Oc1ccc(CN2CC[C@@H](NS(=O)(=O)c3cnc4ccccc4c3)C2)cc1 [Compound 93] | > 8 | > 8 | > 8 | > 8 | > 8 | > 8 | > 8 | > 8 | > 8 | > 8 | > 8 | > 8
11 | O=S(=O)(N[C@@H]1CCN(Cc2ccc(OC3CC3)cc2)C1)c1cc(Cl)cc(C(F)(F)F)c1 [Compound 94] | > 8 | > 8 | > 8 | > 8 | > 8 | > 8 | > 8 | > 8 | 8 (≈ 16.8 µM) | > 8 | > 8 | > 8
